The experiment concerns the target T1, human prolyl oligopeptidase (Homo sapiens, UniProt P48147).
T1 construct: His tail; made in house; host or cells: E. coli BL21
T1 sequence (P48147 1-710): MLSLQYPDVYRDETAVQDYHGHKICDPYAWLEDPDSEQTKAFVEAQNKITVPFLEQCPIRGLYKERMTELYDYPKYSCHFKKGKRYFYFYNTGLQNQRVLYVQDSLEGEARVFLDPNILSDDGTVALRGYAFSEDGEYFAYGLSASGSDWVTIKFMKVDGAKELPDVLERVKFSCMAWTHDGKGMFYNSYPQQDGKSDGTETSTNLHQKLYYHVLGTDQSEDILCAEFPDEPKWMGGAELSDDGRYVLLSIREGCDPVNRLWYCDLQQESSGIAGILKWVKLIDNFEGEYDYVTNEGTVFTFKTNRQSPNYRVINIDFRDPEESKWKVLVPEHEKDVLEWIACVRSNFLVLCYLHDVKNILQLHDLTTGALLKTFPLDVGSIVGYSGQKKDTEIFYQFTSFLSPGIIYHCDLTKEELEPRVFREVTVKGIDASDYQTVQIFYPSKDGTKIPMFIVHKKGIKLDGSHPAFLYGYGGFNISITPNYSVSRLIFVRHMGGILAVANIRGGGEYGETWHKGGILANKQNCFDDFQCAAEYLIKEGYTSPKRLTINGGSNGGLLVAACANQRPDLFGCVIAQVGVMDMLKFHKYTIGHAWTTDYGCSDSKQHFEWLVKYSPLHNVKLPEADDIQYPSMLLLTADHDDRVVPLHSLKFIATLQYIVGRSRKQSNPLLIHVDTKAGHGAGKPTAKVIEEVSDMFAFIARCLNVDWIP
Put plainly: POP inhibition assay (Z-G-P-AMC substrate, fluorimetric). It is filed as biochemical. Conditions: hPOP 20 to 60 nM, 15 min preincubation, 1 hour at 37° C., pH 8.0. On the procedure: POP was obtained by expression in E. coli and affinity purification using a His tail fusion according to a literature procedure (Tarragó T et al., Chem Bio Chem 2006; 7:827-33) summarized below:
hPOP expression: E. coli BL21 competent cells were transformed with pETM10 hPOP. To induce expression, a pre-culture of LB medium (50 mL) containing kanamycin (50 μg/mL) was inoculated with one colony and was grown overnight at 37° C. Next day, two cultures of LB medium (500 mL) were inoculated with the overnight culture (10 mL). The inoculated cultures were grown at 37° C. and 220 rpm until the OD595 was 1.2 (2.5-3 hours). […] The column was washed with suspension buffer until the absorbance at 280 nm returned to basal level. […] POP activity was checked in all fractions and positive ones were analyzed by SDS-PAGE and stained with Biosafe Comassie Stain G-250. […] Recombinant hPOP was quantified with the Bio-Rad Protein Assay with BSA as standard. […]
POP activity was determined following the method described by Toide et al (Toide K et al., J. Pharmacol. Exp. Ther. 1995; 274:1370-8), using Z-G-P-AMC (N-benzyloxycarbonyl-Gly-Pro-methylcoumarinyl-7-amide) as POP substrate. […]
Several concentration points (ranging from 25 μM to 400 μM) were measured for each compound. The inhibitory activity on prolyl oligopeptidase was calculated according to eq 1. […]

The values below come from patent US12459891B2, “1-[1-(4-benzyloxy-3,5-difluoro-benzoyl)-4-fluoro-pyrrolidine-2-carbonyl]-pyrrolidine-2-carbonitrile” (ACCURE THERAPEUTICS, S.L., priority 2020, dated 2025).

`N#C[C@@H]1CCCN1C(=O)[C@@H]1CC(F)(F)CN1C(=O)c1ccc(OCc2ccccc2)c(F)c1` [Comp Ex. 4, (S)-1-((S)-1-(4-(benzyloxy)-3-fluorobenzoyl)-4,4-difluoropyrrolidine-2-carbonyl) pyrrolidine-2-carbonitrile] gave a half-maximal inhibitory concentration (IC50) of 365 nM.
Then `N#C[C@@H]1CCCN1C(=O)[C@@H]1C[C@@H](F)CN1C(=O)c1cc(F)c(OCc2ccccc2)c(F)c1` [Example 1, (S)-1-((2S,4R)-1-(4-(benzyloxy)-3,5-difluorobenzoyl)-4-fluoropyrrolidine-2-carbonyl)pyrrolidine-2-carbonitrile], with 45 nM.
